Measurements: PubChem BioAssay AID1845203 (Molecular Pharmacology Branch, DTP, NCI, 2023)
pIC50: −log10 of the molar value. Where “and” joins values, the source holds several entries; their conditions need not be identical. Identical values can stand only once.

Tested on: G-401 tumor spheroids, viability % test/control
Experiment: Anticancer human tumor G-401 cell line growth inhibition;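 further: spheroids exposed to compound for 7 days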;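 on viability, T/C: 100% = DMSO vehicle-treated spheroids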
Conditions: spheroids with HUVEC and MSC; for viability, T/C: stronger effect = lower value
Source text: Multicellular complex tumor spheroid response to DNA repair inhibitors in combination with DNA-damaging drugs
This study explores the anticancer activities of DNA-damaging drugs and inhibitors of DNA damage repair, both as single agents and in combinations. Complex tumor spheroids comprised of malignant cells, endothelial cells and mesenchymal stem cells served as an in vitro model for human solid tumors. This model system incorporates physiologically relevant features and patient-derived or established malignant cell lines with clinically relevant genetic alterations from many tumor types. Twenty-six patient-derived or established malignant cell lines were evaluated representing sarcoma, melanoma, small cell lung cancer (SCLC), non-small cell lung cancer (NSCLC), as well as bladder, ovarian and pancreatic cancers. The concentration ranges selected for each drug and investigational agent were based upon clinically achievable concentrations if the clinical Cmax of the agent was known.
Compounds. The drugs and compounds olaparib (NSC753686), talazoparib (NSC767125), berzosertib (NSC777718), elimusertib (NSC800525), nedisertib (NSC802822), VX-984 (NSC792969), AZD-1390 (NSC803789), temozolomide (NSC362856), topotecan (NSC609699), trabectedin (NSC813783), staurosporine (NSC755774), and gemcitabine (NSC613327) were obtained from the National Cancer Institute (NCI) Developmental Therapeutics Program Chemical Repository. The FDA-approved anticancer drug set is available from the Developmental Therapeutics Program at https://dtp.cancer.gov/organization/dscb/obtaining/available_plates.htm. […] The stock solutions were prepared in dimethyl sulfoxide (DMSO, Sigma-Aldrich, St. Louis, MO, cat. D2650) at 400-fold the tested concentration and stored at -70 degrees C. Prior to their use, the stock solutions were diluted in fresh medium and the final DMSO concentration in the assay was 0.25% (v/v). All drugs and investigational agents were tested over a range starting from a high concentration at or near the clinical Cmax and decreasing in half-log increments. If the clinical Cmax for an agent had not been determined, the highest concentration tested was 10 microM.
Cell Lines. The patient-derived cancer cell (PDC) lines: 156681-154-R-J1-PDC, 283228-195-R-J1-PDC, 287954-098-R-J1-PDC, 292921-168-R-J2-PDC, 349418-098-R-PDC, 425362-245-T-J1-PDC, 556581-035-R-J1-PDC, and BL0293-F563-PDC were received from the NCI Patient-Derived Models Repository (PDMR, https://pdmr.cancer.gov). The established cell lines HS-SY-2 (RRID:CVCL_8719), MPNST, and SYO-1 (RRID:CVCL_7146) were obtained from the Sloan Kettering Institute. The alveolar soft parts sarcoma cell line ASPS-1 (RRID:CVCL_S738) was established at the NCI and grown from internal seed stocks. The following established cell lines were purchased from the American Type Culture Collection (ATCC, Manassas, VA): G-401 (ATCC, cat. CRL-1441, RRID:CVCL_0270), SW982 (ATCC, cat. HTB-93, RRID:CVCL_1734), VA-ES-BJ (ATCC, cat. CRL-2138, RRID:CVCL_1785), NCI-H719 (ATCC, cat. CRL-5837, RRID:CVCL_1582), NCI-H196 (ATCC, cat. CRL-5823, RRID:CVCL_1509), NCI-H841 (ATCC, cat. CRL-5845, RRID:CVCL_1595), NCI-H1618 (ATCC, cat. CRL-5879, RRID:CVCL_1480), NCI-H1876 (ATCC, cat. CRL-5902, RRID:CVCL_1503), DMS 114 (ATCC, cat. CRL-2066; RRID:CVCL_1174), NCI-H211 (ATCC, cat. CRL-5824; RRID:CVCL_1529), and SW 1271 (ATCC, cat. CRL-2177, RRID:CVCL_1716). The small cell lung cancer cell line COR-L88 was purchased from Sigma-Aldrich (cat. 92031917-1VL, RRID:CVCL_1141). The non-small cell lung cancer cell lines NCI-H226 (RRID:CVCL_1544) and NCI-H322M (RRID:CVCL_1557) were established at the NCI and grown from internal seed stocks. Pooled donor human umbilical vein endothelial cells (HUVEC, Lonza, cat. CC-2519) and human mesenchymal stem cells (hMSC, Lonza, cat. PT-2501) were purchased from Lonza (Walkersville, MD).
Cell Culture. All cells were maintained in an incubator at 37 degrees C and 5% CO2 with 95% humidity. […]

[1] = compound alone, run of 12/02/2019
[2] = compound alone, run of 12/12/2019

| Compound | viability, T/C (compound 0.0316 µM) | viability, T/C (compound 0.1 µM) | viability, T/C (compound 0.316 µM) | viability, T/C (compound 1 µM) | viability, T/C (compound 3.16 µM) | viability, T/C (compound 10 µM) | pIC50 (curve of compound) | viability, T/C (compound 0.00949 µM) | viability, T/C (compound 0.03 µM) | viability, T/C (compound 0.0949 µM) | viability, T/C (compound 0.3 µM) | viability, T/C (compound 0.949 µM) | viability, T/C (compound 3 µM) | further results |
| --- | --- | --- | --- | --- | --- | --- | --- | --- | --- | --- | --- | --- | --- | --- |
| CC(C)n1c(=O)n(C)c2cnc3cc(F)c(-c4ccc(OCCCN5CCCCC5)nc4)cc3c21 | 87.5% and 105% and 107% | 92.2% and 105% and 104% | 47.9% and 100% and 108% | 90.7% and 101% and 103% | 95.9% and 98.2% and 101% | 67.4% (2×) and 86.7% | < 5.00 |  |  |  |  |  |  |  |
| CC1COCCN1c1cc(-c2ccnn2C)c2ccnc(-c3ccn[nH]3)c2n1 (stereo not drawn) | 67% and 79% and 90.9% | 34.7% and 42.4% and 56% | 19.1% and 24.4% and 31.2% | 13.1% and 17.3% and 18.1% | 16.2% and 18.7% and 19.8% | 18.1% and 20.2% and 22.3% | 7.24 and 7.10 and 6.88 |  |  |  |  |  |  |  |
| CC[C@@]1(O)C(=O)OCc2c1cc1n(c2=O)Cc2cc3c(CN(C)C)c(O)ccc3nc2-1 |  |  |  |  |  |  |  | 48.8% [middle of 10 runs] | 16% [middle of 10 runs] | 7.7% [middle of 10 runs] | 5.06% [middle of 10 runs] |  |  | viability, T/C (compound 0.003 µM): 78.6% [middle of 10 runs]; IC50 [1]: 8.64 nM [middle of 5 runs]; IC50 [2]: 9.18 nM [middle of 5 runs] |
| CNCc1ccc(-c2cc(-c3nc(-c4ccc(S(=O)(=O)C(C)C)cc4)cnc3N)on2)cc1 |  |  |  |  |  |  | 5.66 and 5.75 and 5.69 | 97.3% and 93.8% and 100% | 102% and 98.4% and 99.4% | 103% and 105% and 101% | 96.6% and 96% and 97.9% | 71.3% and 64% and 69.4% | 41.7% and 38.1% and 39.8% |  |
| COc1cc(C)[nH]c(=O)c1CN1CCc2c(Cl)cc(C(OC)C3COC3)c(Cl)c2C1=O (stereo not drawn) | 76.2% and 80.4% and 95.5% | 52.4% and 56.5% and 66.3% | 35.7% and 33.3% and 42.5% | 30.3% and 28.9% and 35.6% | 28% and 18.8% and 33.9% | 26.9% and 19% and 31.9% | 6.93 and 6.86 and 6.65 |  |  |  |  |  |  |  |
| COc1cc2c(cc1O)CCNC21CSC2c3c(OC(C)=O)c(C)c4c(c3C(COC1=O)N1C(O)C3Cc5cc(C)c(OC)c(O)c5C(C21)N3C)OCO4 (stereo not drawn) |  |  |  |  |  |  |  |  |  |  |  |  |  | viability, T/C (compound 30 pM): 99.4% [middle of 10 runs]; viability, T/C (compound 0.0003 µM): 38.9% [middle of 10 runs]; viability, T/C (compound 0.000949 µM): 7.91% [middle of 10 runs]; viability, T/C (compound 0.003 µM): 0.12% [middle of 5 runs]; IC50 [2]: 0.233 nM [middle of 10 runs] |
| COc1ccc([C@@H](O)c2cc(-c3ncnc4cc(N5CCOCC5)ccc34)c(F)cc2Cl)nn1 | 101% and 107% and 106% | 91.2% and 94.8% and 97.8% | 82.3% and 92.2% and 94.8% | 50.2% and 63.6% and 69.6% | 22.2% and 24% and 31% | 11% and 10.1% and 15.4% | 5.99 and 5.83 and 5.74 |  |  |  |  |  |  |  |
| Cc1cc(C)c(CNC(=O)c2cc(-c3ccc(CN4CCOCC4)cc3)cc3c2cnn3C2CCCC2)c(=O)[nH]1 | 106% and 105% and 95.6% | 111% and 102% and 98.5% | 108% and 107% and 106% | 113% and 97.5% and 91.4% | 98.1% and 91.5% and 77.8% | 44.2% and 44.8% and 57.8% | 5.05 and 5.06 and < 5.00 |  |  |  |  |  |  |  |
| Cc1sc2c(c1C)C(c1ccc(Cl)cc1)=NC(CC(=O)Nc1ccc(O)cc1)c1nnc(C)n1-2 (stereo not drawn) |  |  |  |  |  |  | 6.76 and 6.91 and 6.72 | 93.3% and 106% and 91.1% | 86.6% and 75.1% and 80.9% | 65.4% and 56.4% and 67.6% | 34.7% and 35.5% and 37.8% | 20.1% and 20% and 21.8% | 10% and 11.8% and 7.68% |  |
| Cn1ncnc1[C@H]1c2n[nH]c(=O)c3cc(F)cc(c23)N[C@@H]1c1ccc(F)cc1 |  |  |  |  |  |  | 7.31 and 6.84 and 6.92 | 70.3% and 90% and 80.4% | 54.4% and 75.6% and 67% | 43.7% and 56% and 56.1% | 28.6% and 38.6% and 34.7% | 17.3% and 23.2% and 21.1% | 12.2% and 14.5% and 11.7% |  |
| Cn1nnc2c(C(N)=O)ncn2c1=O |  |  |  | 102% [middle of 10 runs] | 102% [middle of 10 runs] | 103% [middle of 10 runs] |  |  |  |  |  |  |  | viability, T/C (compound 31.6 µM): 96.8% [middle of 10 runs]; viability, T/C (compound 100 µM): 94.8% [middle of 9 runs]; pIC50 [1]: < 4.00 |
| O=C(c1cc(Cc2n[nH]c(=O)c3ccccc23)ccc1F)N1CCN(C(=O)C2CC2)CC1 |  |  |  |  |  |  | 4.86 and 5.03 and 4.85 |  |  | 98.3% and 98.6% and 96.5% | 97.5% and 84.9% and 91.2% | 96.1% and 86.9% and 105% | 83.7% and 82.5% and 87% | viability, T/C (compound 9.49 µM): 54.9% and 49.4% and 58.5%; viability, T/C (compound 30 µM): 40.1% and 28.5% and 34.9% |
| [2H]c1nc(C)nc([2H])c1-c1cc(NC[C@@H](C)c2cccc3c(C(=O)NC)ccnc23)ncn1 | 104% and 105% and 96.6% | 108% and 98.9% and 97.7% | 103% and 105% and 98.1% | 102% and 98.9% and 98.6% | 105% and 103% and 98.3% | 104% and 103% and 98% | < 5.00 |  |  |  |  |  |  |  |
